ChEMBL document CHEMBL4393726, “Distinct biological responses of metastatic castration resistant prostate cancer cells upon exposure to G-quadruplex interacting naphthalenediimide derivatives” (Eur J Med Chem, 2019)
The source made the active and inactive calls. The rule behind the calls is not given here.

Legend:
DU-145 [1] = assay: Induction of apoptosis in human DU145 cells assessed as increase in cleaved PARP1 level after 48 to 96 hrs by Western blot analysis; assay type: functional, cell-based
DU-145 [2] = assay: Effect on human DU145 cell growth assessed as change in cell growth at 72 hrs 0.5 times IC50 treated for every week for 56 days by cell counter based trypan blue exclusion assay; assay type: functional
PC-3 [3] = assay: Effect on human PC3 cell growth assessed as population doubling at 48 hr IC50 incubated for 96 hrs by cell counter based trypan blue exclusion assay (reference value: 2.6); assay type: functional
Homo sapiens [4] = organism: Homo sapiens; assay: Effect on telomere DNA in human DU145 cells assessed as telomere DNA length at 48 hrs 0.5 times IC50 treated for every week for 56 days by pulsed field electrophoresis/southern blot based densitometric analysis (reference value: 3.9 +/- 0.5 kb); assay type: cell-based
DU-145 [5] = assay: Down regulation of EGFR protein expression in human DU145 cells at 48 hrs IC50 incubated for 96 hrs by Western immunoblot assay relative to control; assay type: functional
DU-145 [6] = assay: Cytotoxicity against human DU145 cells assessed as decrease in cell viability after 48 hrs by MTS assay; assay type: functional, cell-based; conditions: DU-145, 48 h
PC-3 [7] = assay: Cytotoxicity against human PC3 cells assessed as decrease in cell viability after 24 hrs by MTS assay; assay type: functional, cell-based; conditions: PC-3, 24 h
PC-3 [8] = assay: Effect on human PC3 cell growth assessed as no change in population doubling at 48 hr IC50 incubated for 48 hrs by cell counter based trypan blue exclusion assay; assay type: functional
[9] = molecular target: T1, Mitogen-activated protein kinase; ERK1/ERK2 (Homo sapiens) (UniProt P27361+P28482); assay: Effect on ERK 1/2 phosphorylation at T202/Y204 residues in human PC3 cells assessed as decrease in ERK1/2 phosphorylation at T202/Y204 at 48 hrs IC50 incubated for 96 hrs by Western immunoblot assay; assay type: cell-based
T1 sequence (P27361 whole entry, looked up): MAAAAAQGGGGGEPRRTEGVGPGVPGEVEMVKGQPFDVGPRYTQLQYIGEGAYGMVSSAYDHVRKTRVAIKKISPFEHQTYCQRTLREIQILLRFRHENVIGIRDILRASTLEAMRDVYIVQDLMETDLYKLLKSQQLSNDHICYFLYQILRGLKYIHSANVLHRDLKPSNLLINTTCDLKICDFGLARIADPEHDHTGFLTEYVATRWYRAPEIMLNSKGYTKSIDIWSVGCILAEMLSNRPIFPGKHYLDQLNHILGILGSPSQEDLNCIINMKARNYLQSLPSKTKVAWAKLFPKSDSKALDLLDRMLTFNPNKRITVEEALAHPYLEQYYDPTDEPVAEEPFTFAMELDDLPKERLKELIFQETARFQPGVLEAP
T1 sequence (P28482 whole entry, looked up): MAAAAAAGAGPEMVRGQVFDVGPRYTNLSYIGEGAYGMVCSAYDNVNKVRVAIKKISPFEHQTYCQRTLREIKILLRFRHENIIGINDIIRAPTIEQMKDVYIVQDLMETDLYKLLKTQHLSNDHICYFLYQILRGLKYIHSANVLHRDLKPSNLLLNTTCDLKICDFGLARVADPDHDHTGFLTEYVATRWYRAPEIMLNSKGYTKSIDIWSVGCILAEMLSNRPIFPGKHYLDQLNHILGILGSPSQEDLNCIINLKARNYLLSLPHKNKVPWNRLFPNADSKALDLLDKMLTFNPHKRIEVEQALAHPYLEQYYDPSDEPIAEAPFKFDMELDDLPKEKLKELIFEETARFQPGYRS

PC-3 [10] = assay: Effect on ERK 1/2 basel level in human PC3 cells assessed as downregulation of ERK 1/2 basal level at 48 hrs IC50 incubated for 96 hrs by Western immunoblot assay; assay type: ADME, cell-based; conditions: pc-3, 96 h
PC-3 [11] = assay: Effect on AKT basal level in homozygous PTEN-deficient human PC3 cells assessed as reduction in AKT basal level at 48 hr IC50 incubated for 48 to 96 hrs by Western immunoblot assay; assay type: ADME, cell-based
Quadruplex DNA [12] = assay: Stabilization of synthetic 5'Dabcyl/3'-FAM-labeled EGFR 272 G4 quadruplex DNA assessed as change in melting temperature by fluorescence melting assay; assay type: nucleic-acid assay
PC-3 [13] = assay: Down regulation of EGFR protein expression in human PC3 cells at 48 hrs IC50 incubated for 48 hrs by Western immunoblot assay relative to control; assay type: functional
DU-145 [14] = assay: Effect on AKT basal level in heterozygous PTEN-positive human DU145 cells assessed as reduction in AKT basal level at 48 hrs IC50 incubated for 48 hrs by Western immunoblot assay; assay type: ADME, cell-based; conditions: du-145, 48 h
DU-145 [15] = assay: Effect on ERK 1 basal level in human DU145 cells assessed as reduction in ERK 1 basal level at 48 hrs IC50 incubated for 48 hrs by Western immunoblot assay; assay type: ADME, cell-based; conditions: du-145, 48 h
Quadruplex DNA [16] = assay: Binding affinity to synthetic 5'Dabcyl/3'-FAM-labeled telomeric 22 G4 quadruplex DNA folded DNA assessed as entropy change by isothermal titration calorimetry; assay type: nucleic-acid assay
PC-3 [17] = assay: Effect on human PC3 cell growth assessed as reduction in cell growth at 72 hrs 0.5 times IC50 treated for every week for 56 days by cell counter based trypan blue exclusion assay; assay type: functional
DU-145 [18] = assay: Cytotoxicity against human DU145 cells assessed as decrease in cell viability after 24 hrs by MTS assay; assay type: functional, cell-based; conditions: DU-145, 24 h
[19] = molecular target: T1, Mitogen-activated protein kinase; ERK1/ERK2 (Homo sapiens); assay: Effect on ERK 1/2 phosphorylation at T202/Y204 residues in human PC3 cells assessed as decrease in ERK1/2 phosphorylation at T202/Y204 at 48 hrs IC50 incubated for 48 hrs by Western immunoblot assay; assay type: cell-based
DU-145 [20] = assay: Cytotoxicity against human DU145 cells assessed as decrease in cell viability after 72 hrs by MTS assay; assay type: functional, cell-based; conditions: DU-145, 72 h
PC-3 [21] = assay: Effect on ERK 1/2 basal level in human PC3 cells assessed as downregulation of ERK 1/2 basal level at 48 hrs IC50 incubated for 48 hrs by Western immunoblot assay; assay type: ADME, cell-based; conditions: pc-3, 48 h
PC-3 [22] = assay: Cytotoxicity against human PC3 cells assessed as decrease in cell viability after 48 hrs by MTS assay; assay type: functional, cell-based; conditions: PC-3, 48 h
Quadruplex DNA [23] = assay: Binding affinity to synthetic 5'Dabcyl/3'-FAM-labeled telomeric 22 G4 quadruplex DNA folded DNA assessed as enthalpy change by isothermal titration calorimetry; assay type: nucleic-acid assay
PC-3 [24] = assay: Cytotoxicity against human PC3 cells assessed as decrease in cell viability after 72 hrs by MTS assay; assay type: functional, cell-based; conditions: PC-3, 72 h
Homo sapiens [25] = organism: Homo sapiens; assay: Effect on telomere DNA in human PC3 cell assessed as increase in telomere DNA length at 48 hrs 0.5 times IC50 treated for every week for 56 days by pulsed field electrophoresis/southern blot based densitometric analysis
PC-3 [26] = assay: Effect on telomeric C-circle DNA in human PC3 cell assessed as alternative telomere maintenance based increase in telomeric C-circle DNA level at 48 hrs 0.5 times IC50 treated for every week for 56 days [32P]-labeled (CCCTAA)3 probe incubated for 56 days followed by post incubation of 8 hrs in presence of Bacillus phage phi29 DNA polymerase and further heat inactivation at 65 degreeC for 20 mins by dot blot based CC assay; assay type: functional
PC-3 [27] = assay: Induction of apoptosis in human PC3 cells assessed as increase in cleaved PARP1 level after 48 to 96 hrs by Western blot analysis; assay type: functional, cell-based
DU-145 [28] = assay: Down regulation of EGFR protein expression in human DU145 cells after 24 hrs by Western immunoblot assay; assay type: functional, cell-based
[29] = molecular target: T1, Mitogen-activated protein kinase; ERK1/ERK2 (Homo sapiens); assay: Effect on ERK 1/2 phosphorylation at T202/Y204 residues in human DU145 cells assessed as increase in ERK1/2 phosphorylation at T202/Y204 at 48 hrs IC50 incubated for 48 to 96 hrs by Western immunoblot assay; assay type: cell-based
PC-3 [30] = assay: Effect of EGFR protein expression in human PC3 cell assessed as reduction in EGFR level at 48 hrs IC50 treated for every week for 56 days by Western immunoblotting analysis; assay type: functional
[31] = molecular target: RAC-alpha serine/threonine-protein kinase (Homo sapiens) (UniProt P31749); assay: Effect on AKT phosphorylation at S473 in heterozygous PTEN-positive human DU145 cells as reduction in AKT phosphorylation at S473 residue at 48 hr IC50 incubated for 48 hrs by Western immunoblot assay
Chain of RAC-alpha serine/threonine-protein kinase (Homo sapiens) (P31749 whole entry): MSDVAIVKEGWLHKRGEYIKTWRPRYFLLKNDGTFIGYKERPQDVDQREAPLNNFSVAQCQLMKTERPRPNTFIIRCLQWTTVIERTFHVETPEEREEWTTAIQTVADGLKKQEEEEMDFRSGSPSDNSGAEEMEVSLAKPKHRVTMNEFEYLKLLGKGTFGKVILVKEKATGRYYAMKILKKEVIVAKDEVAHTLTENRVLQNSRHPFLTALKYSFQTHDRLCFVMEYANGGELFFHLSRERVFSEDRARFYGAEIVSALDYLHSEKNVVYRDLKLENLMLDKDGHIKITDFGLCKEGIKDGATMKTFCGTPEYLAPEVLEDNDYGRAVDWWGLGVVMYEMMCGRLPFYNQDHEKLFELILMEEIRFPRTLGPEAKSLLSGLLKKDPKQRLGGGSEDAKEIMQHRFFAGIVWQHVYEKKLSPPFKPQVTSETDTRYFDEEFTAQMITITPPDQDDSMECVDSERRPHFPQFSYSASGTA

DU-145 [32] = assay: Effect of EGFR protein expression in human DU145 cell at 48 hrs IC50 treated for every week for 56 days by Western immunoblotting analysis; assay type: functional, cell-based
PC-3 [33] = assay: Down regulation of EGFR protein expression in human PC3 cells after 24 hrs by Western immunoblot assay; assay type: functional, cell-based
Homo sapiens [34] = organism: Homo sapiens; assay: Effect on telomere DNA in human PC3 cells assessed as telomere DNA length at 48 hrs 0.5 times IC50 treated for every week for 56 days by pulsed field electrophoresis/southern blot based densitometric analysis (reference value: 4.6 +/- 0.3 kb); assay type: cell-based
PC-3 [35] = assay: Effect on ephithelial-mesenchymal transition in human PC3 cell assessed as decrease in E-cadherin expression at 48 hrs 0.5 times IC50 treated for every week for 56 days by Western immunoblotting analysis; assay type: functional, cell-based
DU-145 [36] = assay: Effect on human DU145 cell growth assessed as population doubling at 48 hr IC50 incubated for 96 hrs by cell counter based trypan blue exclusion assay (reference value: 2.89); assay type: functional
PC-3 [37] = assay: Effect on ephithelial-mesenchymal transition in human PC3 cell assessed as increase in vimentin at 48 hrs 0.5 times IC50 treated for every week for 56 days by Western immunoblotting analysis; assay type: functional, cell-based
Quadruplex DNA [38] = assay: Stabilization of synthetic 5'Dabcyl/3'-FAM-labeled EGFR 272 G4 quadruplex DNA assessed as change in melting temperature at 1 uM by Fluorescence melting assay; assay type: nucleic-acid assay
[39] = molecular target: RAC-alpha serine/threonine-protein kinase (Homo sapiens) (UniProt P31749); assay: Effect on AKT phosphorylation at S473 homozygous PTEN-deficient human PC3 cells as reduction in AKT phosphorylation at S473 residue at 48 hr IC50 incubated for 48 to 96 hrs by Western immunoblot assay
Quadruplex DNA [40] = assay: Stabilization of synthetic 5'Dabcyl/3'-FAM-labeled telomeric 22 G4 quadruplex DNA assessed as change in melting temperature by fluorescence melting assay; assay type: nucleic-acid assay
Quadruplex DNA [41] = assay: Binding affinity to synthetic 5'Dabcyl/3'-FAM-labeled EGFR 272 G4 quadruplex DNA folded DNA assessed as enthalpy change by isothermal titration calorimetry; assay type: nucleic-acid assay
Quadruplex DNA [42] = assay: Binding affinity to synthetic 5'Dabcyl/3'-FAM-labeled EGFR 272 G4 quadruplex DNA folded DNA assessed as entropy change by isothermal titration calorimetry; assay type: nucleic-acid assay
DU-145 [43] = assay: Effect on ERK 2 basal level in human DU145 cells assessed as reduction in ERK 2 basal level at 48 hrs IC50 incubated for 48 hrs by Western immunoblot assay; assay type: ADME, cell-based; conditions: du-145, 48 h
PC-3 [44] = assay: Down regulation of EGFR protein expression in human PC3 cells at 48 hrs IC50 incubated for 96 hrs by Western immunoblot assay relative to control; assay type: functional

COc1ccc(CNCCCN2C(=O)c3ccc4c5c(ccc(c35)C2=O)C(=O)N(CCCNCc2ccc(OC)c(OC)c2OC)C4=O)c(OC)c1OC
Activity (DU-145 [1]): Active
Activity (DU-145 [2]): inactive
Activity (PC-3 [3]): 0.51
Activity (Homo sapiens [4]): 3.8 kilobase
Activity (DU-145 [5]): 20%
IC50 (DU-145 [6]): 2260 nM
IC50 (PC-3 [7]): 1360 nM
Activity (PC-3 [8]): Active
Activity [9]: inactive
Activity (PC-3 [10]): Toxic
Activity (PC-3 [11]): Toxic
Activity (Quadruplex DNA [12]): Active
Activity (PC-3 [13]): 70 - 80%
Activity (DU-145 [14]): Toxic
Activity (DU-145 [15]): Toxic
deltaS (Quadruplex DNA [16]): -10.1 cal/mol.K
Activity (PC-3 [17]): Active
IC50 (DU-145 [18]): 3460 nM
Activity [19]: Active
IC50 (DU-145 [20]): 1720 nM
Activity (PC-3 [21]): Toxic
IC50 (PC-3 [22]): 970 nM
deltaH (Quadruplex DNA [23]): -10.7 kcal/mol
IC50 (PC-3 [24]): 630 nM
Activity (Homo sapiens [25]): Active
Activity (PC-3 [26]): Active
Activity (PC-3 [27]): inactive
Activity (DU-145 [28]): Dose-dependent effect
Activity [29]: Active
inhibition (INH) (PC-3 [30]): 100%
Activity [31]: inactive
Activity (DU-145 [32]): inactive
Activity (PC-3 [33]): Dose-dependent effect
Activity (Homo sapiens [34]): 4.5 kilobase
Activity (PC-3 [35]): Active
Activity (DU-145 [36]): 2
Activity (PC-3 [37]): Active
Activity (Quadruplex DNA [38]): Active
Activity [39]: Active
Activity (Quadruplex DNA [40]): Active
deltaH (Quadruplex DNA [41]): -21.5 kcal/mol
deltaS (Quadruplex DNA [42]): -46.4 cal/mol.K

COc1ccccc1CNCCCN1C(=O)c2ccc3c4c(ccc(c24)C1=O)C(=O)N(CCCNCCCCN)C3=O
Activity (DU-145 [1]): Active
Activity (DU-145 [2]): inactive
Activity (PC-3 [3]): 0.97
Activity (Homo sapiens [4]): 3.8 kilobase
Activity (DU-145 [5]): 20%
IC50 (DU-145 [6]): 2730 nM
IC50 (PC-3 [7]): 2800 nM
Activity (PC-3 [8]): Active
Activity [9]: inactive
Activity (DU-145 [43]): Toxic
Activity (PC-3 [44]): 50%
Activity (PC-3 [10]): Toxic
Activity (PC-3 [11]): Toxic
Activity (Quadruplex DNA [12]): Active
Activity (PC-3 [13]): 70 - 80%
Activity (DU-145 [14]): Toxic
Activity (DU-145 [15]): Toxic
deltaS (Quadruplex DNA [16]): -1.9 cal/mol.K
Activity (PC-3 [17]): Active
IC50 (DU-145 [18]): 4760 nM
Activity [19]: Active
IC50 (DU-145 [20]): 2050 nM
Activity (PC-3 [21]): Toxic
IC50 (PC-3 [22]): 2440 nM
deltaH (Quadruplex DNA [23]): -8 kcal/mol
IC50 (PC-3 [24]): 1460 nM
Activity (Homo sapiens [25]): Active
Activity (PC-3 [26]): Active
Activity (PC-3 [27]): inactive
Activity (DU-145 [28]): Dose-dependent effect
Activity [29]: Active
inhibition (INH) (PC-3 [30]): 100%
Activity [31]: inactive
Activity (DU-145 [32]): inactive
Activity (PC-3 [33]): Dose-dependent effect
Activity (Homo sapiens [34]): 4.4 kilobase
Activity (PC-3 [35]): Active
Activity (DU-145 [36]): 1.85
Activity (PC-3 [37]): Active
Activity (Quadruplex DNA [38]): Active
Activity [39]: Active
Activity (Quadruplex DNA [40]): Active
deltaH (Quadruplex DNA [41]): -1.1 kcal/mol
deltaS (Quadruplex DNA [42]): 18.9 cal/mol.K
